Laboratory results as given in patent publication US10882012B2, “Process for producing a nano resveratrol microemulsion system” (priority 2018, dated 2021).

Test: Water solubility / water-dispersing ability
Format: physicochemical
Settings: dispersed in water, bottle A versus bottle B, visual

Water-dispersing ability (FIG. 1): insoluble in water
SMILES: Oc1ccc(C=Cc2cc(O)cc(O)c2)cc1 [known 99% resveratrol, resveratrol]
